Measured values published in article PMC5318895, “Inhibition of N1-Src kinase by a specific SH3 peptide ligand reveals a role for N1-Src in neurite elongation by L1-CAM” (Scientific Reports, 2017).

Legend:
hippocampal neurons = test: neurite growth of hippocampal neurons after N1-Src shRNA knockdown; format: cell-based, rat; conditions: pSUPER-GFP shRNA, 48 h and 96 h post-transfection, versus empty plasmid or non-targeting shRNA, n = 90 neurons, Kruskal-Wallis
Procedure: We next took advantage of the specificity of PDN1 to investigate the role of endogenous N1-Src in neurite outgrowth in cultured neurons. CFP-PDN1 or -PDN1(P5A) was transfected into 1 DIV CGNs and their morphology analysed after […]. During CGN development in vivo and immediately after plating in vitro, the cells grow two processes before polarising to yield a single axon and the second process retracts to become a dendrite and further dendrites are initiated. The axon then extends further before bifurcating. […] To further confirm that N1-Src regulates neurite growth we employed an shRNA expressing plasmid (pSUPER-GFP) to knockdown N1-Src in neurons. […] The successful N1-Src shRNA plasmid was transfected into hippocampal neurons, and the length of the longest neurite in GFP-positive neurons was assessed at 48 h and 96 h post-transfection. […] Thus, perturbing N1-Src activity with PDN1 or knockdown of the protein produces the same neurite phenotype in primary neuronal cultures.
Figure 5 Knockdown of N1-Src phenocopies the action of PDN1 in cultured neurons. […] (c,d) Cultured hippocampal neurons transfected with pSUPER-GFP (control) or pSUPER-GFP encoding N1-Src specific shRNA were analysed for length of longest neurite at 48 or 96 h. […] Data were normalised to the 48 h control and plotted as mean ± SEM, n = 90 neurons, with 30 cells analysed per condition in 3 independent experiments. […]

N1-Src = test: isoform specificity of N1-Src shRNA co-expressed with C-, N1- or N2-Src in COS7 cells; format: cell-based, rat; conditions: COS7, co-transfected 72 h with C-, N1- or N2-Src-FLAG; anti-FLAG immunoblot
C-Src SH3 domain = conditions: cited from earlier work
Text: The PDN1 consensus motif, RxPxxTxK, represents a novel SH3 ligand and lacks a canonical PxxP, thus confirming the six amino acid N1-Src splice insert has a dramatic effect on the structure of its SH3 domain. The ligand binding site in the majority of SH3 domains, including C-Src, comprises three pockets, two of which interact with the core xP motifs and one that adds specificity through binding flanking residues. […] Indeed, one of the few ...

Substance: 5′-GGAAGGTGGATGTCAGAGA-3′ (expressed or natural sequence; target site or template, no part of the molecule) [N1-Src shRNA]
- inhibition of neurite growth (length of longest neurite) (hippocampal neurons): significant time-dependent inhibition of neurite growth
- isoform specificity of knockdown (N1-Src): confirmed isoform specificity

Substance: RSLRPLPPLPPRPPF [phage display ligand selected by the PI3-kinase SH3 domain]
- binding to the C-Src SH3 domain (C-Src SH3 domain): did not bind the C-Src SH3 domain
